Some test systems named below: OVCAR-4; HT-29; ACHN; HCT-15; LOX IMVI; U-251; OVCAR-5; UACC-257; T47D; UO-31; OVCAR-3; K562; DU-145; NCI-H522; MDA-MB-435; SF-539; HL-60; MDA-MB-231; CCRF-CEM; PC-3.
Holding throughout (experiment): NCI-60 cell line screen, 48 h

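Assay format: 96-well plates, 48-hour exposure. GI50 marks 50% less growth.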 The source made the active and inactive calls. No stated cut-off is given here; in the data, active = GI50 up to about 1.1 µM and inactive = higher.

Turning to `COc1cc(/C=C2/SC(c3ccccc3)N(c3ccc(NC(C)=O)cc3)C2=O)cc(OC)c1OC` (centres undefined), the GI50 with OVCAR-4 is > 100 µM (inactive); in the test with HT-29, > 100 µM (inactive); with ACHN, > 100 µM (inactive); with HCT-15, above 100 µM; in the test on LOX IMVI, 72.1 µM (inactive); in the test with U-251, > 100 µM (inactive). The GI50 in the test on OVCAR-5 was > 100 µM (inactive); with UACC-257 it was > 100 µM (inactive); with T47D, 84.3 µM (inactive); in the test on UO-31, 48.8 µM (inactive); in the test on OVCAR-3, > 100 µM (inactive); with K562, 49.4 µM (inactive). Moreover, the GI50 in the test with DU-145 was > 100 µM (inactive); in the test with NCI-H522, 28.1 µM (inactive); with MDA-MB-435, 66.4 µM (inactive); in the test with SF-539 it was > 100 µM (inactive); in the test with HL-60, 66.4 µM (inactive); in the test on MDA-MB-231 it was > 100 µM (inactive).
In the case of `CCCCCCCCCCCCCCCC(=O)OCC1OC(OC)C(NC(=O)N(CCCl)N=O)C(O)C1O` (centres undefined), the GI50 in the test on OVCAR-4 is 20 µM (inactive); in the test on HT-29 it was 14.5 µM (inactive); with ACHN, 13.4 µM (inactive); in the test with CCRF-CEM it was 7.36 µM (inactive); in the test on HCT-15, 13.1 µM; in the test with LOX IMVI it was 2.36 µM (inactive). The GI50 in the test on U-251 is 8.38 µM (inactive); with OVCAR-5, 35 µM (inactive); with PC-3, 15.7 µM (inactive); in the test with UACC-257, 19.7 µM (inactive); with UO-31 it was 24 µM (inactive); with OVCAR-3 it was 19.6 µM (inactive). Besides, the GI50 in the test on K562 was 10.7 µM (inactive); in the test with DU-145 it was 19.5 µM (inactive); in the test with NCI-H522 it was 15.9 µM (inactive); in the test on MDA-MB-435, 16.7 µM (inactive); in the test on SF-539 it was 3.32 µM (inactive); in the test with HL-60, 4.57 µM (inactive). Moreover, in the test with MDA-MB-231, the GI50 was 17.9 µM (inactive).
For `CC(O)=NC(Cc1ccc2ccccc2c1)C(O)=NC(Cc1ccc(Cl)cc1)C(O)=NC(Cc1c[nH]c2ccccc12)C(O)=NC(CO)C(O)=NC(Cc1ccc(O)cc1)C(O)=NC(CCCN=C(N)N)C(O)=NC(CC(C)C)C(O)=NC(CCCN=C(N)N)C(=O)N1CCCC1C(O)=NC(C)C(=N)O` (centres undefined), the GI50 in the test with OVCAR-4 was 74 µM (inactive); in the test on HT-29, 35.5 µM (inactive); with ACHN it was 15 µM (inactive); with CCRF-CEM it was > 100 µM (inactive); in the test with HCT-15, 63 µM; with U-251, 31.6 µM (inactive). Besides, the GI50 in the test with OVCAR-5 is 41.3 µM (inactive); in the test on PC-3, 32.3 µM (inactive); in the test with UACC-257, 32.4 µM (inactive); in the test on UO-31 it was 26 µM (inactive); with OVCAR-3, > 100 µM (inactive); in the test on K562, > 100 µM (inactive). The GI50 in the test with DU-145 was 26.5 µM (inactive); with NCI-H522, 45.9 µM (inactive); in the test with MDA-MB-435 it was 40.1 µM (inactive); with SF-539, 36.6 µM (inactive); in the test on HL-60 it was > 100 µM (inactive); with MDA-MB-231, 59.7 µM (inactive).
Consider `CC1(CCC2C=CCC2)CCCNC1=S` (centres undefined), for which the GI50 with HT-29 is > 10 µM (inactive); with ACHN, > 10 µM (inactive); in the test with CCRF-CEM it was > 10 µM (inactive); in the test with HCT-15, above 10 µM; in the test on LOX IMVI it was > 10 µM (inactive); in the test with U-251 it was > 10 µM (inactive). In addition, the GI50 with OVCAR-5, in the test on PC-3, with UACC-257, with T47D, with UO-31 and with OVCAR-3 was > 10 µM (inactive) throughout. Further, the GI50 in the test with K562, in the test on DU-145, with MDA-MB-435, in the test on SF-539, in the test with HL-60 and in the test on MDA-MB-231 was > 10 µM (inactive) throughout.
For the compound `O=C1NC(Cc2ccc(O)cc2)C(=O)NC1Cc1ccc(O)cc1` (centres undefined), the GI50 in the test on OVCAR-4 was > 100 µM (inactive); in the test on HT-29 it was > 100 µM (inactive); in the test with ACHN, > 100 µM (inactive); with CCRF-CEM, > 100 µM (inactive); in the test on HCT-15, above 100 µM; with LOX IMVI it was > 100 µM (inactive). The GI50 with U-251, with OVCAR-5, in the test with PC-3, in the test with UACC-257, with UO-31 and in the test on OVCAR-3 was > 100 µM (inactive) each time. Also, the GI50 in the test with K562 was > 100 µM (inactive); with DU-145, 24.8 µM (inactive); with NCI-H522, > 100 µM (inactive); in the test with MDA-MB-435 it was > 100 µM (inactive); with SF-539, > 100 µM (inactive); with HL-60, > 100 µM (inactive). For the same compound, the GI50 in the test on MDA-MB-231 is > 100 µM (inactive).
In the case of `COC(=O)C(=O)C(C(=O)C(=O)Nc1ccc(C)cc1)c1nc2ccc(C(=O)c3ccccc3)cc2nc1O` (centres undefined), the GI50 in the test with OVCAR-4 was 49 µM (inactive); in the test with HT-29, 7.83 µM (inactive); in the test on ACHN, > 100 µM (inactive); in the test on CCRF-CEM, 76.4 µM (inactive); with HCT-15, 52.2 µM; in the test on LOX IMVI, > 100 µM (inactive). For the same compound, the GI50 in the test with U-251 is > 100 µM (inactive); with OVCAR-5, > 100 µM (inactive); with PC-3, 43.7 µM (inactive); in the test on UACC-257, > 100 µM (inactive); in the test with T47D, 79.4 µM (inactive); with UO-31, 51.2 µM (inactive). Also, the GI50 is > 100 µM (inactive) in the test on OVCAR-3; 42.2 µM (inactive) in the test with K562; 30.5 µM (inactive) in the test on NCI-H522; 47.3 µM (inactive) in the test with MDA-MB-435; > 100 µM (inactive) in the test with SF-539; 30.1 µM (inactive) with HL-60. The GI50 in the test on MDA-MB-231 is > 100 µM (inactive).
For the compound `COC(CN(C(=O)c1ccccc1)C1CCC2(SCCS2)c2[nH]c3ccccc3c21)OC` (centres undefined), the GI50 was 28.2 µM (inactive) in the test with OVCAR-4; 37.3 µM (inactive) in the test with HT-29; 27.8 µM (inactive) with ACHN; 44.2 µM (inactive) in the test on CCRF-CEM; 30.6 µM with HCT-15; 2.18 µM (inactive) in the test with LOX IMVI. Besides, the GI50 is 25.9 µM (inactive) with U-251; 33.7 µM (inactive) in the test with OVCAR-5; 18.2 µM (inactive) with PC-3; 14.4 µM (inactive) in the test on UACC-257; 16 µM (inactive) in the test with UO-31; 25.8 µM (inactive) in the test with OVCAR-3. For the same compound, the GI50 was 14.9 µM (inactive) with K562; 93.3 µM (inactive) in the test with DU-145; 13.9 µM (inactive) with NCI-H522; 15.6 µM (inactive) in the test with MDA-MB-435; 63.1 µM (inactive) in the test on SF-539; 16.9 µM (inactive) in the test on HL-60. Also, in the test with MDA-MB-231, the GI50 was 28.9 µM (inactive).
In the case of `CCOC(=O)Cc1cc(=O)oc2cc(O)ccc12`, the GI50 in the test with HT-29 is > 100 µM (inactive); in the test on ACHN it was > 100 µM (inactive); with CCRF-CEM it was > 100 µM (inactive); with HCT-15, above 100 µM; in the test on LOX IMVI, > 100 µM (inactive); in the test with U-251 it was > 100 µM (inactive). Further, the GI50 was 59.4 µM (inactive) in the test on OVCAR-5; > 100 µM (inactive) in the test on PC-3; > 100 µM (inactive) in the test on UACC-257; > 100 µM (inactive) in the test with UO-31; > 100 µM (inactive) with OVCAR-3; > 100 µM (inactive) in the test with K562. The GI50 in the test with DU-145, in the test on NCI-H522, with MDA-MB-435, with SF-539, in the test on HL-60 and in the test on MDA-MB-231 was > 100 µM (inactive) in each case.
In the case of `Cc1cn(CC2=NCC(C)(C)N2)c(=O)[nH]c1=O`, the GI50 is > 100 µM (inactive) in the test with HT-29; > 100 µM (inactive) with ACHN; < 0.01 µM (active) with CCRF-CEM; above 100 µM with HCT-15; > 100 µM (inactive) in the test on LOX IMVI; > 100 µM (inactive) in the test with U-251. The GI50 in the test with OVCAR-5, in the test with PC-3, in the test with UACC-257, in the test on T47D, with UO-31 and with K562 was > 100 µM (inactive) each time. Besides, the GI50 in the test on DU-145, in the test on NCI-H522 and in the test with MDA-MB-231 was > 100 µM (inactive) throughout.
Regarding `C(=N\c1ccc(-c2nc3ccccc3[nH]2)cc1)/c1ccc[nH]1`, the GI50 in the test on OVCAR-4 is 54.2 µM (inactive); with HT-29 it was 78.5 µM (inactive); with ACHN, > 100 µM (inactive); in the test with CCRF-CEM, 11.4 µM (inactive); with HCT-15, 76.6 µM; with LOX IMVI it was 76.6 µM (inactive). Moreover, the GI50 in the test with OVCAR-5 was > 100 µM (inactive); in the test on PC-3, 70.8 µM (inactive); in the test with UACC-257, > 100 µM (inactive); with T47D it was 40.3 µM (inactive); with UO-31 it was 69.3 µM (inactive); with OVCAR-3 it was 69 µM (inactive). Further, the GI50 with K562 was 41.3 µM (inactive); in the test with DU-145 it was > 100 µM (inactive); in the test with NCI-H522 it was 35 µM (inactive); in the test with MDA-MB-435, 41.8 µM (inactive); in the test with SF-539, > 100 µM (inactive); with HL-60 it was 1.91 µM (inactive).
Turning to `CC(C)OCC1CC(CC(=O)Nc2nncs2)C(=O)O1` (centres undefined), the GI50 with OVCAR-4 was > 100 µM (inactive); in the test with HT-29, > 100 µM (inactive); in the test on ACHN, > 100 µM (inactive); with CCRF-CEM it was > 100 µM (inactive); in the test on HCT-15 it was above 100 µM; in the test on LOX IMVI, > 100 µM (inactive). Further, the GI50 with U-251, in the test on OVCAR-5, in the test on PC-3, in the test with UACC-257, in the test on T47D and with UO-31 was > 100 µM (inactive) each time. Moreover, the GI50 with OVCAR-3, in the test on K562, with DU-145, with MDA-MB-435, in the test on SF-539 and in the test with MDA-MB-231 was > 100 µM (inactive) in each case.

These data come from ChEMBL document CHEMBL1201862, “PubChem BioAssay data set” (2004).
